The text below walks through data of US9360484B2, “Anti-FcRH5 antibodies and immunoconjugates and methods of use” (Genentech, Inc., priority 2009, dated 2016).

The test system of data set [1] is OPM2-FcRH5 tumors (OPM2 multiple myeloma cells stably transfected with human FcRH5). Nature of the data set: OPM2-FcRH5 xenograft: Hu anti-FcRH5 10A8-MC-vc-PAB-MMAE in combination with Revlimid and Revlimid plus Dexamethasone. In kind it is in vivo, CB17 ICR SCID mice. Conditions: for CR (mice with Complete Remission: tumor volume dropped to 0 mm^3) / PR (mice with Partial Regression: tumor volume dropped below 50% of day 0) / TI (number of observable tumors at end of study): 38 day time course, ADC 6 mg/kg single IV day 0, Revlimid 50 mg/kg IP daily, Dexamethasone 3 mg/kg PO; for percent body weight change (FIG. 44): first 17 days. The text has this: Specifically, the ability of the antibody in combination with Revlimid® and Revlimid® plus Dexamethasone to regress tumors in OPM2 cells (Multiple myeloma cell line) stably transfected with human FcRH5 was examined. After transfection of linearized pRK.CMV.PD.nbe.FcRH5 into OPM2 cells and puromycin (Calbiochem, San Diego, Calif.) selection, surviving cells were separated for FcRH5 expressing cells with biotin (Pierce Biotechnology, Rockford, Il) labeled anti-FcRH5.7D11 and MACS anti-Biotin microbeads on an MACS LS column (Miltenyi Biotec, Auburn, Calif.).
For analysis of efficacy of Hu anti-FcRH5 10A8 conjugated to -MC-vc-PAB-MMAE in combination with Revlimid® and Revlimid® plus Dexamethasone, female CB17 ICR SCID mice (6-8 weeks of age from Charles Rivers Laboratories; Hollister, Calif.) were inoculated subcutaneously with 2×10^7 OPM2-FcRH5 cells via injection into the flanks of CB17 ICR SCID mice and the xenograft tumors were allowed to grow to an average of 446 mm^3. Day 0 refers to the day the tumors were 263-630 mm^3 and when the first/or only dose of treatment was administered, unless indicated specifically below. Tumor volume was calculated based on two dimensions, measured using calipers, and was expressed in mm3 according to the formula: V=0.5a×b^2, where a and b are the long and the short diameters of the tumor, respectively. Data collected from each experimental group were expressed as mean+SE. Mice were randomized into nine groups of 8 mice each and dosed. Group 1 received daily intraperitoneal (IP) injections of a mixture of DMSO and MCT buffer on Days 0-13 as a vehicle control. […] Group 4 received daily IP injections of 50 mg/kg Revlimid® on Days 0-13. Group 5 received daily oral (PO) dosing of 3 mg/kg Dexamethasone for four days followed by three days off for two cycles on Days 0-3 and 7-10. Group 6 received daily IP injections of 50 mg/kg Revlimid® on Days 0-13 plus daily PO dosing of 3 mg/kg Dexamethasone for four days followed by three days off for two cycles on Days 0-3 and 7-10. […] Tumors were measured twice a week throughout the experiment. Body weights of mice were measured twice a week throughout the experiment. If mice experienced a body weight loss of greater than 15% compared to their body weight on Day 0, mice were weighed daily until weight regained or until body weight loss reached greater than 20%. […] All animal protocols were approved by an Institutional Animal Care and Use Committee (IACUC).

For data set [2] the test system is unchanged. Nature of the data set: OPM2-FcRH5 xenograft: Hu anti-FcRH5 10A8-SPDB-DM4 alone and in combination with Velcade. The data set is classed as in vivo, CB17 ICR SCID mice. The text has this: Specifically, the ability of the antibody and Velcade® to regress tumors in OPM2 cells (Multiple myeloma cell line) stably transfected with human FcRH5 was examined. After transfection of linearized […]5 into OPM2 cells and puromycin (Calbiochem, San Diego, Calif.) selection, surviving cells were separated for FcRH5 expressing cells with biotin (Pierce Biotechnology, Rockford, Il) labeled anti-FcRH5.7D11 and MACS anti-Biotin microbeads on an MACS LS column (Miltenyi Biotec, Auburn, Calif.). […] Data collected from each experimental group were expressed as mean±SE. Mice were randomized into six groups of 9 mice each and dosed. […] Group 2 received a single IV injection of histidine buffer on Day 0 plus IV injections of 0.9% sodium chloride (saline) twice weekly for two weeks on Days 0, 3, 7, and 10 as a vehicle control. […] Tumors were measured twice a week throughout the experiment. Body weights of mice were measured twice a week for the first three weeks. […] All animal protocols were approved by an Institutional Animal Care and Use Committee (IACUC).

In another data set the test system is OPM2-FcRH5 tumors. Briefly: Inhibition of in vivo tumor growth, OPM2-FcRH5 xenografts, hu10A8-MC-vc-PAB-MMAE alone and in combination with Velcade (Example 8, Table 14). More on the design: species or system CB17 ICR SCID mice. The text has this: Specifically, the ability of the antibody and Velcade® to regress tumors in OPM2 cells (Multiple myeloma cell line) stably transfected with human FcRH5 was examined. After transfection of linearized pRK.CMV.PD.nbe.FcRH5 into OPM2 cells and puromycin (Calbiochem, San Diego, Calif.) selection, surviving cells were separated for FcRH5 expressing cells with biotin (Pierce Biotechnology, Rockford, Il) labeled anti-FcRH5.7D11 and MACS anti-Biotin microbeads on an MACS LS column (Miltenyi Biotec, Auburn, Calif.).
For analysis of efficacy of hu anti-FcRH5 10A8 conjugated with MC-vc-PAB-MMAE alone and in combination with Velcade®, female CB17 ICR SCID mice (6-8 weeks of age from Charles Rivers Laboratories; Hollister, Calif.) were inoculated subcutaneously with 2×10^7 OPM2-FcRH5 cells via injection into the flanks of CB17 ICR SCID mice and the xenograft tumors were allowed to grow to an average of 331 mm^3. Day 0 refers to the day the tumors were 172-511 mm^3 and when the first/or only dose of treatment was administered, unless indicated specifically below. Tumor volume was calculated based on two dimensions, measured using calipers, and was expressed in mm3 according to the formula: V=0.5a×b^2, where a and b are the long and the short diameters of the tumor, respectively. Data collected from each experimental group were expressed as mean±SE. Mice were randomized into nine groups of 9 mice each and dosed. Group 1 received a single intravenous (IV) injection of histidine buffer on Day 0 plus IV injections of 0.9% sodium chloride (saline) twice weekly for two weeks on Days 0, 3, 7, and 10 as a vehicle control. […] Group 3 received IV injections of 1 mg/kg Velcade® twice weekly for two weeks on Days 0, 3, 7, and 10. Group 4-5 received a single IV injection of 4 or 10 mg/kg thio hu anti-FcRH5(10A8)-HC-MC-vc-PAB-MMAE, CNJ 1465, respectively, on Day 0. […] Tumors were measured twice a week throughout the experiment. Body weights of mice were measured twice a week for the first three weeks. […] All animal protocols were approved by an Institutional Animal Care and Use Committee (IACUC).

The test system of another data set is cynomolgus FcRH5. Nature of the data set: Cyno cross-reactivity by FACS on stably transfected cells (SVT2 cells expressing cynoFcRH5). In kind it is binding, cynomolgus monkey. More on the design: key to Cyno X-reactivity (FACS) on stable transfected cells: X*: *Very slight at saturating concentration. On the procedure:
For additional FACS analysis of FcRH5 antibodies, 1.0 μg, 0.1 μg or 0.01 μg of antibody was titrated per million cells of BJAB cells stably expressing huFcRH5 and SVT2 cells stably expressing cynoFcRH5. Briefly, approximately 10^6 cells in 100 μl were incubated with varying amounts (1.0 ug, 01. ug or 0.01 ug) of murine Ab mu1H4, mu6H1, mu7D11, mu9E2, mu10A8, mu10F5, or mu13G9 per million cells of BJAB cells stably expressing huFcRH5 and SVT2 cells stably expressing cynoFcRH5. Incubation with 1.0 ug/10^6 cells of the appropriate Mu IgG isotype control was used as a negative control. PE conjugated Rat anti-MuIgG1 or Rat anti-MuIgG2a+b was used as the secondary detection antibody.
Background: In flow cytometry, cells or beads pass a laser one at a time.

The test system of a further data set is BJAB-FcRH5 tumors. Nature of the data set: In vivo tumor cell killing assay, BJAB-FcRH5 xenografts (Example 4). More on the design: species or system CB17 ICR SCID mice. The note with it: unconjugated antibody, 10.8 mg/kg i.v. day 0 and day 7, 8 mice. On the procedure:
To test the efficacy of various anti-FcRH5 antibodies, murine anti-human antibodies were conjugated to DM1 and the effect of the conjugated variant on tumors in mice were analyzed.
Specifically, the ability of the antibodies to regress tumors in BJAB-luciferase cells (Burkitt's lymphoma cell line stably transfected with human FcRH5.
After transfection of pRK.CMV.PD.nbe.FcRH5 into BJAB-luciferase cells and puromycin (Calbiochem, San Diego, Calif.) selection, surviving cells were FACS autocloned for mid range expressers with anti-FcRH5 antibodies (7D11). Post autoclone, the BJAB-luciferase cell line expressing FcRH5 most closely resembling plasma cell expression, as determined by FACS, was chosen by FACS analysis using anti-FcRH5 antibodies (7D11). As a negative control, BJAB-luciferase transfected, in the same manner, with the empty vector pRK.CMV.PD.nbe were used.
For analysis of efficacy mouse antibodies, female CB17 ICR SCID mice (6-8 weeks of age from Charles Rivers Laboratories; Hollister, Calif.) were inoculated subcutaneously with 2×10^7 BJAB-FcRH5 cells via injection into the flanks of CB17 ICR SCID mice and the xenograft tumors were allowed to grow to an average of 128 mm^3. Day 0 refers to the day the tumors were an average of 100-250 mm^3 and when the first/or only dose of treatment was administered, unless indicated specifically below. Tumor volume was calculated based on two dimensions, measured using calipers, and was expressed in mm^3 according to the formula: V=0.5a×b^2, where a and b are the long and the short diameters of the tumor, respectively. Data collected from each experimental group were expressed as mean±SE. Groups of 8 mice were treated with a weekly intravenous (i.v.) dose of 400 μg of antibody-linked drug/m^2 mouse (corresponding to ˜8-10 mg ADC/kg of mouse) with anti-FcRH5 ADC or control antibody-drug conjugates at day 0 and day 7. Tumors were measured twice a week throughout the experiment. Body weights of mice were measured either once a week throughout the experiment. […]

Setting [3] is: 37 day time course, ADC 4 mg/kg single IV day 0, Velcade 1 mg/kg IV days 0, 3, 7, 10.
Where [4] appears, read: Velcade 1 mg/kg twice weekly for two weeks (Days 0, 3, 7, 10), OPM2-FcRH5 xenograft, CB17 ICR SCID mice.

Sequence of cynomolgus FcRH5 (as listed by the source): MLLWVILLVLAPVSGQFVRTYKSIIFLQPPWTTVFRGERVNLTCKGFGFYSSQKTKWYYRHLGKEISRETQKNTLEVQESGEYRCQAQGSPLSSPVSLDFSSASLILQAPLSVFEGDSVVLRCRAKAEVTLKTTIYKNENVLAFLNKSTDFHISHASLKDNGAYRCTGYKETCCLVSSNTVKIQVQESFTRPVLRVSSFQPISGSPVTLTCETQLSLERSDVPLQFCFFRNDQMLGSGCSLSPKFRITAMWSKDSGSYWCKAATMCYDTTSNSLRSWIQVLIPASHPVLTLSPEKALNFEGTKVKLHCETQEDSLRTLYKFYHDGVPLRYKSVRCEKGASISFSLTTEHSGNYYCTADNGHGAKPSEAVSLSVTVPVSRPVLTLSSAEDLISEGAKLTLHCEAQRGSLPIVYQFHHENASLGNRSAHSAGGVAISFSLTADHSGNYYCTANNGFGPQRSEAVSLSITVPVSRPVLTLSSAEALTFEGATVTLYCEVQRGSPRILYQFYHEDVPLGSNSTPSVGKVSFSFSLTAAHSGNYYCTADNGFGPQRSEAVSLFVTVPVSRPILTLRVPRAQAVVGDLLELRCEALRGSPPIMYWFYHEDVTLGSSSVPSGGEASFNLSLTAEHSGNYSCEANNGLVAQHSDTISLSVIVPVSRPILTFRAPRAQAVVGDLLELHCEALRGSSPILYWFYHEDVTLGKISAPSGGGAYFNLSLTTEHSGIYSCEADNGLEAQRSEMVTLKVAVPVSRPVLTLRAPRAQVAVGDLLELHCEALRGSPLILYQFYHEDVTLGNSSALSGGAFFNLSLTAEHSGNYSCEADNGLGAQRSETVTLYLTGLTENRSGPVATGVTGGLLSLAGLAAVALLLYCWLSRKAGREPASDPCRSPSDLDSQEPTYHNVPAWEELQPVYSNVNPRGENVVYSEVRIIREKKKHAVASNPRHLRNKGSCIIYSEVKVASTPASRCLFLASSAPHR

With `C[C@@H]1C[C@H]2[C@@H]3CCC4=CC(=O)C=C[C@]4(C)[C@@]3(F)[C@@H](O)C[C@]2(C)[C@@]1(O)C(=O)CO` [Dexamethasone], in data set [1], the “CR (mice with Complete Remission: tumor volume dropped to 0 mm^3)” value is 0, the “PR (mice with Partial Regression: tumor volume dropped below 50% of day 0)” value came out at 0, the “TI (number of observable tumors at end of study)” value is listed as 5/5 and the “percent body weight change (FIG. 44)” value is on record as “caused a significant decrease in body weight or weight loss”.

`Nc1cccc2c1CN(C1CCC(=O)NC1=O)C2=O` (stereo not drawn) [Revlimid, lenalidomide]: in data set [1], the “CR (mice with Complete Remission: tumor volume dropped to 0 mm^3)” value is 0, the “PR (mice with Partial Regression: tumor volume dropped below 50% of day 0)” value was found to be 0, the “TI (number of observable tumors at end of study)” value is listed as 4/4 and the “percent body weight change (FIG. 44)” value is listed as “caused a significant decrease in body weight or weight loss”.

For `CC(C)C[C@H](NC(=O)[C@H](Cc1ccccc1)NC(=O)c1cnccn1)B(O)O` [Velcade ®], in data set [2] (setting [3]), the “CR (mice with Complete Remission: tumor volume dropped to 0 mm^3)” value was 0, the “PR (mice with Partial Regression: tumor volume dropped below 50% of day 0)” value was determined as 0 and the “TI (number of observable tumors at end of study)” value is recorded as 8/8. Further, in the data set on OPM2-FcRH5 tumors (setting [4]), the “CR (Complete Remission; number of mice with tumor volume dropped to 0 mm^3)” value stood at 0, the “PR (Partial Regression; number of mice with tumor volume below 50% of day 0 volume)” value was 0 and the “TI (number of observable tumors at end of study)” value is 9/9.

With `CC(C)C[C@H](NC(=O)[C@H](Cc1ccccc1)NC(=O)c1cnccn1)B(O)O` [Velcade®, bortezomib], the “percent body weight change (FIG. 42)” value in data set [2] (first 21 days) is reported as “did not cause a significant decrease in body weight or weight loss”. Moreover, the “percent body weight change” value with OPM2-FcRH5 tumors (first 24 days, 1 mg/kg IV twice weekly for two weeks) is “caused a decrease in body weight or weight loss through the duration of treatment, but weight rebounded after dosing was complete”.

B1: 7D11: murine monoclonal antibody binding human FcRH5 (antibody, V domains shown)
VH: EVQLVESGGGLVQPGGSLKLSCAASGFTFSSYGMSWVRQTPDKRLELVATITRNGGTTYYLDSVKGRFTISRDNAKNTLYLQMSSLKSEDTAMYYCARGPIYYDYGYAMDYWGQGTTVTVSS
VL: DILLTQSPAILSVSPGERVSFSCRSSQSIGTNIHWYQQRTNGSPRLLIKFASESLSGIPSRFSGSGSGTDFTLSINSVESEDFADYYCQQSNSWPLTFGAGTKVEIK
In the case of B1, in the data set on cynomolgus FcRH5, the “Cyno X-reactivity (FACS) on stable transfected cells” value is listed as “X*”. Moreover, the “cross reaction with cynomolgus FcRH5 by FACS analysis” value in the data set with cynomolgus FcRH5 (1.0, 0.1 or 0.01 μg antibody per million SVT2 cells stably expressing cynoFcRH5) is listed as “cross react with cynomolgus FcRH5”. In addition, in the data set with BJAB-FcRH5 tumors, the “CR (Complete Remission, number of mice)” value was 0; the “PR (Partial Regression, number of mice)” value was 0; the “TI (number of observable tumors at end of study)” value is 8/8.
